Laboratory results from ChEMBL document CHEMBL4330132, “5-Keto-3-cyano-2,4-diaminothiophenes as selective maternal embryonic leucine zipper kinase inhibitors” (Bioorg Med Chem Lett, 2019).

Key:
[1] = molecular target: Cyclin-dependent kinase 13 (Homo sapiens) (UniProt Q14004); experiment: Binding affinity to wild-type human partial length CDC2L5 (H675 to S1054 residues) expressed in mammalian expression system assessed as residual binding level at 1 uM by Kinomescan method relative to control
[2] = molecular target: Serine/threonine-protein kinase Nek6 (Homo sapiens) (UniProt Q9HC98); experiment: Binding affinity to wild-type human full length NEK6 (M8 to T313 residues) expressed in bacterial expression system assessed as residual binding level at 1 uM by Kinomescan method relative to control
[3] = molecular target: Serine/threonine-protein kinase D1 (Homo sapiens) (UniProt Q15139); experiment: Binding affinity to wild-type human partial length PRKD1 (G551 to E870 residues) expressed in bacterial expression system assessed as residual binding level at 1 uM by Kinomescan method relative to control
[4] = molecular target: Vascular endothelial growth factor receptor 3 (Homo sapiens) (UniProt P35916); experiment: Binding affinity to wild-type human partial length FLT4 (E821 to E1196 residues) expressed in bacterial expression system assessed as residual binding level at 1 uM by Kinomescan method relative to control
[5] = molecular target: Tyrosine-protein kinase Fes/Fps (Homo sapiens) (UniProt P07332); experiment: Binding affinity to wild-type human partial length FES (I527 to R822 residues) expressed in bacterial expression system assessed as residual binding level at 1 uM by Kinomescan method relative to control
[6] = molecular target: Ephrin type-A receptor 4 (Homo sapiens) (UniProt P54764); experiment: Binding affinity to wild-type human partial length EPHA4 (T601 to R897 residues) expressed in bacterial expression system assessed as residual binding level at 1 uM by Kinomescan method relative to control
[7] = molecular target: Calcium/calmodulin-dependent protein kinase type II subunit beta (Homo sapiens) (UniProt Q13554); experiment: Binding affinity to wild-type human partial length CAMK2B (M1 to Q380 residues) expressed in bacterial expression system assessed as residual binding level at 1 uM by Kinomescan method relative to control
[8] = molecular target: cAMP-dependent protein kinase catalytic subunit alpha (Homo sapiens) (UniProt P17612); experiment: Binding affinity to wild-type human partial length PKAC-alpha (G10 to F351 residues) expressed in bacterial expression system assessed as residual binding level at 1 uM by Kinomescan method relative to control
[9] = molecular target: Casein kinase I isoform gamma-2 (Homo sapiens) (UniProt P78368); experiment: Binding affinity to wild-type human full length CSNK1G2 (M1 to K415 residues) expressed in bacterial expression system assessed as residual binding level at 1 uM by Kinomescan method relative to control
[10] = molecular target: Serine/threonine-protein kinase tousled-like 1 (Homo sapiens) (UniProt Q9UKI8); experiment: Binding affinity to wild-type human partial length TLK1 (K447 to A754 residues) expressed in bacterial expression system assessed as residual binding level at 1 uM by Kinomescan method relative to control
[11] = molecular target: Dual specificity tyrosine-phosphorylation-regulated kinase 1A (Homo sapiens) (UniProt Q13627); experiment: Binding affinity to wild-type human partial length DYRK1A (H129 to S509 residues) expressed in mammalian expression system assessed as residual binding level at 1 uM by Kinomescan method relative to control
[12] = molecular target: Fibroblast growth factor receptor 3 (Homo sapiens) (UniProt P22607); experiment: Binding affinity to wild-type human partial length FGFR3 (R442 to S771 residues) expressed in bacterial expression system assessed as residual binding level at 1 uM by Kinomescan method relative to control
[13] = molecular target: Serine/threonine-protein kinase BRSK2 (Homo sapiens) (UniProt Q8IWQ3); experiment: Binding affinity to wild-type human full length BRSK2 (M1 to L674 residues) expressed in bacterial expression system assessed as residual binding level at 1 uM by Kinomescan method relative to control
[14] = molecular target: Ribosomal protein S6 kinase alpha-1 (Homo sapiens) (UniProt Q15418); experiment: Binding affinity to wild-type human partial length C-terminal RSK1 kinase domain 2 (P360 to L681 residues) expressed in bacterial expression system assessed as residual binding level at 1 uM by Kinomescan method relative to control
[15] = molecular target: Mitogen-activated protein kinase kinase kinase 13 (Homo sapiens) (UniProt O43283); experiment: Binding affinity to wild-type human full length LZK (M1 to W966 residues) expressed in mammalian expression system assessed as residual binding level at 1 uM by Kinomescan method relative to control
[16] = molecular target: Aurora kinase A (Homo sapiens) (UniProt O14965); experiment: Binding affinity to wild-type human partial length AURKA (E122 to K401 residues) expressed in mammalian expression system assessed as residual binding level at 1 uM by Kinomescan method relative to control
[17] = molecular target: Cyclin-dependent kinase-like 5 (Homo sapiens) (UniProt O76039); experiment: Binding affinity to wild-type human partial length CDKL5 (M1 to S337 residues) expressed in mammalian expression system assessed as residual binding level at 1 uM by Kinomescan method relative to control
[18] = molecular target: CDK4/Cyclin D3 (Homo sapiens) (UniProt P11802+P30281); experiment: Binding affinity to wild-type human full length CDK4/cyclinD3 (M1 to E303 residues) expressed in mammalian expression system assessed as residual binding level at 1 uM by Kinomescan method relative to control
[19] = molecular target: Serine/threonine-protein kinase mTOR (Homo sapiens) (UniProt P42345); experiment: Binding affinity to wild-type human partial length MTOR (L1382 to W2549 residues) expressed in mammalian expression system assessed as residual binding level at 1 uM by Kinomescan method relative to control
[20] = tested on: Epidermal growth factor receptor (Homo sapiens), P00533 [L858R,T790M]; experiment: Binding affinity to human partial length EGFR L858R/T790M double mutant (R669 to V1011 residues) expressed in mammalian expression system assessed as residual binding level at 1 uM by Kinomescan method relative to control
[21] = molecular target: Receptor tyrosine-protein kinase erbB-4 (Homo sapiens) (UniProt Q15303); experiment: Binding affinity to wild-type human partial length ERBB4 (L690 to K994 residues) expressed in bacterial expression system assessed as residual binding level at 1 uM by Kinomescan method relative to control
[22] = molecular target: Mitogen-activated protein kinase 15 (Homo sapiens) (UniProt Q8TD08); experiment: Binding affinity to wild-type human partial length ERK8 (M1 to P437 residues) expressed in bacterial expression system assessed as residual binding level at 1 uM by Kinomescan method relative to control
[23] = molecular target: Mitogen-activated protein kinase 8 (Homo sapiens) (UniProt P45983); experiment: Binding affinity to wild-type human full length JNK1 (M1 to Q384 residues) expressed in mammalian expression system assessed as residual binding level at 1 uM by Kinomescan method relative to control
[24] = molecular target: Serine/threonine-protein kinase Nek1 (Homo sapiens) (UniProt Q96PY6); experiment: Binding affinity to wild-type human partial length NEK1 (M1 to K278 residues) expressed in bacterial expression system assessed as residual binding level at 1 uM by Kinomescan method relative to control

Sequence of Fibroblast growth factor receptor 3 (Homo sapiens) (P22607 23-806 limits assumed): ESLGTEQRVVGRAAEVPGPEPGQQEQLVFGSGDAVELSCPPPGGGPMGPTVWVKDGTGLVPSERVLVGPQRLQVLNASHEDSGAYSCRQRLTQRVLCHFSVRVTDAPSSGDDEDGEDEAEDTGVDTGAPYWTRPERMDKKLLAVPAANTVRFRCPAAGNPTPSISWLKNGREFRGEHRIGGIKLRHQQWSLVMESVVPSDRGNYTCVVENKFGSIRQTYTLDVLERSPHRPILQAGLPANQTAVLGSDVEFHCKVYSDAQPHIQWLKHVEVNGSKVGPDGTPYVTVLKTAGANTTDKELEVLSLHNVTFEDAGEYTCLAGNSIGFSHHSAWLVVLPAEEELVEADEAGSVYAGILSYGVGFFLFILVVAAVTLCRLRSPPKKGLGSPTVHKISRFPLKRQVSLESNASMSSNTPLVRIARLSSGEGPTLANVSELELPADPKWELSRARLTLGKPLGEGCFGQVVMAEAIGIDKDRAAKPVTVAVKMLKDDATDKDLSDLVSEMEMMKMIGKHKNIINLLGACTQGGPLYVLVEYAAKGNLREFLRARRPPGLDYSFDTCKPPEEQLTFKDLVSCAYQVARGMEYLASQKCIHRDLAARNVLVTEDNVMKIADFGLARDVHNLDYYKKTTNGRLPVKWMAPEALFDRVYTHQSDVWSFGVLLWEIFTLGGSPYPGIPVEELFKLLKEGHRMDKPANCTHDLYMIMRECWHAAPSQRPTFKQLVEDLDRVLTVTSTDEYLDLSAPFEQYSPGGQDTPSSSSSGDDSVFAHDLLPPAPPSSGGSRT
Sequence of Mitogen-activated protein kinase 15 (Homo sapiens) (Q8TD08 whole entry, the tested form may be a part): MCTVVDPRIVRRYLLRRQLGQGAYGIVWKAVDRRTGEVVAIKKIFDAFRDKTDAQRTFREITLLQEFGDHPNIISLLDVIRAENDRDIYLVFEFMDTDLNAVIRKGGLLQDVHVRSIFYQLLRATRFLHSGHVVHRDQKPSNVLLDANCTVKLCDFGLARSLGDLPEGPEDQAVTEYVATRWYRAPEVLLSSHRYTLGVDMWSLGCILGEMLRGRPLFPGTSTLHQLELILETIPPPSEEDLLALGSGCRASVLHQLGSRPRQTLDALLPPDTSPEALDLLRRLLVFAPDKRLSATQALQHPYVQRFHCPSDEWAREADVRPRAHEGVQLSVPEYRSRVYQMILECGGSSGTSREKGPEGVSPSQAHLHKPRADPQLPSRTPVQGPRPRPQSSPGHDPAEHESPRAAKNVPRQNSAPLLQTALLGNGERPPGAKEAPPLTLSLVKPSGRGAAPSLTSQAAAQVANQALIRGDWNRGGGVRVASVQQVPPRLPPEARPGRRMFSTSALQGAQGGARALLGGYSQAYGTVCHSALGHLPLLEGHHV
Sequence of Aurora kinase A (Homo sapiens) (O14965 whole entry, the tested form may be a part): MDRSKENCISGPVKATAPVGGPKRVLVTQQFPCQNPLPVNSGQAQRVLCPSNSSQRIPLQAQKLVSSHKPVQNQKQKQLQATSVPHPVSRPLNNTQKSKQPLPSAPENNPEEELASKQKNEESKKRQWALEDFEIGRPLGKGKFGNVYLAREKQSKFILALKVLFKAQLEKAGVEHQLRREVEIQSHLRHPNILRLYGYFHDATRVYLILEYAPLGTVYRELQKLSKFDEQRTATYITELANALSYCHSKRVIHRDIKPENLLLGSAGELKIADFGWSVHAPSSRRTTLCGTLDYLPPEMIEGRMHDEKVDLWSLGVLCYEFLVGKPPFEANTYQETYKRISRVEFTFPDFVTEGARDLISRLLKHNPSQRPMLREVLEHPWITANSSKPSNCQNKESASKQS
Sequence of Vascular endothelial growth factor receptor 3 (Homo sapiens) (P35916 whole entry, the tested form may be a part): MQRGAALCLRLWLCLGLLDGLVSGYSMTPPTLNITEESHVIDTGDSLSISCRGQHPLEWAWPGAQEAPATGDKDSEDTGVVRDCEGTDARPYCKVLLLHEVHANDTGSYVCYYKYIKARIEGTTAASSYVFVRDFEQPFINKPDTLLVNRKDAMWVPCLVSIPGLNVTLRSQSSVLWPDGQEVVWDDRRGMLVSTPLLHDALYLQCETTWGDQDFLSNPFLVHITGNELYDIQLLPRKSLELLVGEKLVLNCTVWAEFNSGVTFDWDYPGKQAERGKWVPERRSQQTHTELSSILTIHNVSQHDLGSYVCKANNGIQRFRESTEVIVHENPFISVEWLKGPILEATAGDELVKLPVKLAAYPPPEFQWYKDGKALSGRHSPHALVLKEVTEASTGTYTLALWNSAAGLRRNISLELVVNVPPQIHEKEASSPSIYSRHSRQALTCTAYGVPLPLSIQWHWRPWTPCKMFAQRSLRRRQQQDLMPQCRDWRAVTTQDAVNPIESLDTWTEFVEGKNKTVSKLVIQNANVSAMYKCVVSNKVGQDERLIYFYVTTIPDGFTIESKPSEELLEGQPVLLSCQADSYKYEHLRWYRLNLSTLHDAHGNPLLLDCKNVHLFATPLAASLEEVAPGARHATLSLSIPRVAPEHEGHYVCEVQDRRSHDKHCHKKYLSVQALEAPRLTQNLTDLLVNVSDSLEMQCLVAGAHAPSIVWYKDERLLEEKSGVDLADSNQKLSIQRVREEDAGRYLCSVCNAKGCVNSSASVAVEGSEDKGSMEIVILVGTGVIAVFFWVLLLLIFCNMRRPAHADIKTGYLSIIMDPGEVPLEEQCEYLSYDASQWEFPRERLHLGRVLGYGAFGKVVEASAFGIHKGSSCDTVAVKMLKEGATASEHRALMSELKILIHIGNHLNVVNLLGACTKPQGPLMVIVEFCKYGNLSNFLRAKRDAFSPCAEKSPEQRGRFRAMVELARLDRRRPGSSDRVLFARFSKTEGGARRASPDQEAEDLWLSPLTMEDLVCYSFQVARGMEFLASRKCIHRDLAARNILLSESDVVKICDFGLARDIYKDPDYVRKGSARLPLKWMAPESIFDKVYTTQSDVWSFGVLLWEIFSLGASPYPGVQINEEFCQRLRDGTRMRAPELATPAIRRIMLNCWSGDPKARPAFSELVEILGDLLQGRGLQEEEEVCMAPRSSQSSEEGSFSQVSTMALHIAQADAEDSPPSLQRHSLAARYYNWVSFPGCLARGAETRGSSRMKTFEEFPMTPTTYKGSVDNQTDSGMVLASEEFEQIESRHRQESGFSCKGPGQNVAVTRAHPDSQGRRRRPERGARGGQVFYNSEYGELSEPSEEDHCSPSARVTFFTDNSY
Sequence of Calcium/calmodulin-dependent protein kinase type II subunit beta (Homo sapiens) (Q13554 whole entry, the tested form may be a part): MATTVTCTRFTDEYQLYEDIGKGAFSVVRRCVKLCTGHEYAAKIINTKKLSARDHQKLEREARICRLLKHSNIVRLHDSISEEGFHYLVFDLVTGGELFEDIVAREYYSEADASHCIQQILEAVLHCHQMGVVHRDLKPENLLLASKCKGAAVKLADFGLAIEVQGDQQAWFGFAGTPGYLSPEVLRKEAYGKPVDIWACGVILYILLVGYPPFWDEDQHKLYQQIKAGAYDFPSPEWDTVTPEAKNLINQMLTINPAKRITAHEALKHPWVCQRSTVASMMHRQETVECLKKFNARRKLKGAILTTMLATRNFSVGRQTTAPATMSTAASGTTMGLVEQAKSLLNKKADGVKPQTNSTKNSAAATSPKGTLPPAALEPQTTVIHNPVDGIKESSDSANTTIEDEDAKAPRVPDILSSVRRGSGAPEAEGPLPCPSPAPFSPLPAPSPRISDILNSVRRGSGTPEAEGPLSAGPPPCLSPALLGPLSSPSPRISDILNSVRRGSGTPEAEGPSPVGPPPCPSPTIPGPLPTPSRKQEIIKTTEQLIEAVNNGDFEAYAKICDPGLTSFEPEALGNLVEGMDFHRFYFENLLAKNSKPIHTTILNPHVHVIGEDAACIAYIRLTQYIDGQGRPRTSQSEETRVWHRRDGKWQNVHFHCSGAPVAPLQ
Sequence of Serine/threonine-protein kinase BRSK2 (Homo sapiens) (Q8IWQ3 whole entry, the tested form may be a part): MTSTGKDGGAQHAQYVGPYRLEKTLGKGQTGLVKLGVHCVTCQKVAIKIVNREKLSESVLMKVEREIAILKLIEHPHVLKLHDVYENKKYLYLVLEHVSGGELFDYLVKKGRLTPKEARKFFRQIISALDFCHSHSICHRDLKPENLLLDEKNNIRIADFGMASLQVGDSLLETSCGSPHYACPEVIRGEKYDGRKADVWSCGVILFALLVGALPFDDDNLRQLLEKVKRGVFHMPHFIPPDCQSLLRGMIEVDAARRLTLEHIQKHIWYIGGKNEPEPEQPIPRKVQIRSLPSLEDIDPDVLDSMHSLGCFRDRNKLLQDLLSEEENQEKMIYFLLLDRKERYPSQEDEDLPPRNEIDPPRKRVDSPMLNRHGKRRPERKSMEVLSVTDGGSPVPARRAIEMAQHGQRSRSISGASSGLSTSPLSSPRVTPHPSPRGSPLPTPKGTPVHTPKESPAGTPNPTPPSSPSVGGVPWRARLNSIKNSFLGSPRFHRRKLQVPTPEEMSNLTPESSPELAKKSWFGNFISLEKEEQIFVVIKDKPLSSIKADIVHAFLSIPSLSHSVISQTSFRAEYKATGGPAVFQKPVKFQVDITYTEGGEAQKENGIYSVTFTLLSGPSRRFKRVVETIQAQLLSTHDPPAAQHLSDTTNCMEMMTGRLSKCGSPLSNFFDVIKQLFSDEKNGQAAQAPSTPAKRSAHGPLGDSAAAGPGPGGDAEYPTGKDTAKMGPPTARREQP
Sequence of Casein kinase I isoform gamma-2 (Homo sapiens) (P78368 whole entry, looked up, the tested form may be a part, canonical isoform): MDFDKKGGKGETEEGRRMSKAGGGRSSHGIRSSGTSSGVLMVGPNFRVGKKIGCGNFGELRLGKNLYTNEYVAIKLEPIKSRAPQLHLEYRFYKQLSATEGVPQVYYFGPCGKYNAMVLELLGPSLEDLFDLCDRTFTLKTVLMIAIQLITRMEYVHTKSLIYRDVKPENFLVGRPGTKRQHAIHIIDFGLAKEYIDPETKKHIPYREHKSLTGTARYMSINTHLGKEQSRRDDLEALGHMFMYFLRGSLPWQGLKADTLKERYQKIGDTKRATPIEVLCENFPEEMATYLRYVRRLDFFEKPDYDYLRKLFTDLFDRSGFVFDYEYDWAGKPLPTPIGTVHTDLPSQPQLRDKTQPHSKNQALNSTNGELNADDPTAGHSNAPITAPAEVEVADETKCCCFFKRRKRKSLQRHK

CC(C)Nc1sc(C(=O)c2ccc(Cl)s2)c(N)c1C#N
Activity [1]: 84% | Activity [2]: 100% | Activity [3]: 97% | Activity [4]: 50% | Activity [5]: 98% | Activity [6]: 93% | Activity [7]: 60% | Activity [8]: 85% | Activity [9]: 74% | Activity [10]: 100% | Activity [11]: 100% | Activity [12]: 100% | Activity [13]: 58% | Activity [14]: 85% | Activity [15]: 92% | Activity [16]: 100% | Activity [17]: 100% | Activity [18]: 100% | Activity [19]: 100% | Activity [20]: 83% | Activity [21]: 100% | Activity [22]: 82% | Activity [23]: 100% | Activity [24]: 79%
